The values below are quoted from earlier work in patent publication US8888736B2, “High shear application in medical therapy” (H R D Corporation, priority 2010, dated 2014).

The conditions of series [1]: believed to average around.

Structures are written as SMILES. ≈ marks a conversion by molar mass, not a printed value. Read-outs that look alike come from different tables or passages of the source.

Regarding `CCCl` [chloroethane], the solubility (water at 20° C.) is 0.0078 mol/L (≈ 503 µg/mL).
Consider `C1CC1` [cyclopropane], for which the solubility (in water at 21° C.) is reported as 537 ppm.
On to `C=COC=C` [divinyl ether], for which, where the note is “water at 37° C.”, the solubility was 0.0749 mol/L (≈ 5250 µg/mL).
Take `CCCl` [ethylchloride]: the solubility (in water at 21° C.) is listed as 0.678 % by weight.
Consider `C=C` [ethylene], for which the solubility (water at 20° C.) is reported as 0.015 g/100 ml.
Turning to `S` [hydrogen sulfide], the “toxic level in the body” value in series [1] is on record as 300-350 ppm.
For `ClC=C(Cl)Cl` [trichloroethylene], the solubility (water at 20° C.) is recorded as 0.1 g/100 ml.
